# Data as given in patent US7935823B2 (priority 2007, dated 2011).
# Tests used:
# [1] = system: SK—N—SH human neuroblastoma cells; conditions: ionomycin-treated cells (40 percent without drug); picomolar concentration; cited from earlier work
# C57/B female mice = assay: Geroprotector activity in aging mice; assay type: in vivo; conditions: 3 mg/kg per day in drinking water
# Protocol: Dimebon was evaluated as an agent that prolongs life and improves the quality of life (characterized by changes in the amount of pathologies that accompany ageing) in the laboratory animals.
# Experiments were conducted with C57/B female mice, starting from their age of 12 months. Mice were kept on cells, 10 animals per a cell. Both control and experimental group included 50 animals in each group. […] The day-night cycle was 12 hours.
# Prior to the experiment, daily and weekly water consumption by the animals in one cell was measured. Dimebon was added in water in such amount that each animal would consume 3 mg/kg of Dimebon per day in average. Bottles with water containing Dimebon were replaced every 7 days. Animals in the control group were receiving pure water.
# Prior to the experiment, all the animals were weighed, and an average weight was determined in every group, every cell, as well as the weight of all animals in every cell. The condition of skin, hair, and eyes were also determined by visual inspection. […] Evaluation of all these parameters was conducted on a monthly basis.
# Statistics were calculated using Student T-test and ‘Chi-squared’ criteria.
# NMDA receptor = conditions: read-out: NMDA receptor inhibition constant (Ki); cited from earlier work
# [2] = system: primary rat cortical neurons; conditions: cultured three days; picomolar concentrations; compared with BDNF at maximally effective concentrations; cited from earlier work
# [3] = system: ion channels associated with glutamate receptors; assay: Glutamate-stimulated calcium-ion uptake in rat brain synaptosomes; conditions: P2-fraction of synaptosomes from newborn rat brain; initial screening 5 uM
# Protocol: Evaluation of the calcium-blocking properties of dimebon was conducted with P2-fraction of synaptosomes, which were isolated from the brain of newborn (8-11 days) rats according to the protocol described in [Bachurin et al. Neuroprotective and cognition enhancing properties of MK-801 flexible analogs. Structure-activity relationships./Ann. N.Y. Acad. Sci., 2001, v. 939, pp. 219-235]. In this test, the ability of the compounds to inhibit a specific uptake of calcium ions via ion channels associated with glutamate receptors was determined.
# Synaptosomes were placed into the incubation buffer A (132 mM NaCl, 5 mM KCl, 5 mM HEPES) and were kept at 0 degrees Celsius (“C”) during the entire experiment. Aliquots of synaptosomes (50µl) were placed in the media A, containing investigated compounds and a preparation of the radiolabeled calcium, ^45Ca. […] A specific calcium uptake was calculated using the following equation K(43/21)=[(Ca4−Ca3)/(Ca2−Ca1)]*100% where: Ca1 is a calcium uptake in a control experiment (no glutamate or test compound added); Ca2 is a calcium uptake in the presence of glutamate only (Glutamate Induced Calcium Uptake—GICU); Ca3 is a calcium uptake in the presence of a test compound only (no glutamate added); Ca4 is a calcium uptake in the presence of both glutamate and a test compound.
# [4] = system: mitochondrial permeability transition pores; conditions: MPP(+) and beta-amyloid fragment 25-35; cited from earlier work
# [5] = system: neuroblastoma line (SH—SY5Y); conditions: pre-treatment with one nano-molar; cited from earlier work
# [6] = system: SK—N—SH human neuroblastoma cells; conditions: ionomycin-treated cells (70 percent without drug); picomolar concentrations; cited from earlier work
# acetylcholinesterase = acetylcholinesterase (Homo sapiens, UniProt P22303); conditions: recombinant enzyme and fresh blood samples from three volunteers; read-out: acetylcholinesterase half-maximal inhibitory concentration (IC50); cited from earlier work
# [7] = human clinical studies; cited from earlier work
# [8] = system: patients with mild to moderate AD; conditions: cited from earlier work
# Sequence of acetylcholinesterase (P22303 32-574 limits assumed): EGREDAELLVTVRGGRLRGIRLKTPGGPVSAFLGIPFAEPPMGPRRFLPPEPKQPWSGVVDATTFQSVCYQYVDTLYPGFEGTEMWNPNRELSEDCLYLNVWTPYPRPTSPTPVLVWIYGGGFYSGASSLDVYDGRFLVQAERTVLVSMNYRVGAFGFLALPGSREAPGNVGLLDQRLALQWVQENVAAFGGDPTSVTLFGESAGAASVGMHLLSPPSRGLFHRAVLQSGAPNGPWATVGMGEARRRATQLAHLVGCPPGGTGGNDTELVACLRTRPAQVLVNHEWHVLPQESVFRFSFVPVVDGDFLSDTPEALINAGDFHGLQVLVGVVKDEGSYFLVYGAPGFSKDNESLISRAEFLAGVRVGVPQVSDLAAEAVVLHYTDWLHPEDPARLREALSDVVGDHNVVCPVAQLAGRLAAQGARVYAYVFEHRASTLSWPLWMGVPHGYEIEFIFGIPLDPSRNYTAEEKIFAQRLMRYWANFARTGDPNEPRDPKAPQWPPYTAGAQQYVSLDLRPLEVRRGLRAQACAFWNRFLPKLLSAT
smiles,measurement,setting,value
Cc1ccc2c(c1)c1c(n2CCc2ccc(C)nc2)CCN(C)C1 [dimebon],cell survival (MTT) relative to control cells,[1],75-85%
same,age-related weight depletion,C57/B female mice,No weight depletion was observed
same,development of non-fatal pathologies (loss of vision and alopecia),C57/B female mice,slowing of the development of non-fatal pathologies
same,probability of death,C57/B female mice; from age 12 months,lower in all age groups
same,amount of animals with cataract vs control,C57/B female mice; 13 to 20 months old mice,significantly less
same,Ki,NMDA receptor,97 µM
same,neurite outgrowth,[2],increased neurite outgrowth as well as did BDNF
same,calcium-blocking properties (specific glutamate-induced 45Ca uptake),[3],pronounced calcium-blocking properties
same,prevention of neurotoxin-induced opening of mitochondrial pores,[4],prevented
same,protection of mitochondrial function (TMRM probe),[5],protected cells from ionomycin-induced stress
same,JC-1 red/green ratio relative to control cells,[6],85-90%
same,IC50,acetylcholinesterase,31 to 72 µM
same,participants/patients reporting gastrointestinal problems,[7],less than 3%
same,clinical endpoints and tolerability in one-year trial,"[8]; one-year randomized double-blinded placebo-controlled trial, 183 patients","met all five clinical endpoints with strong statistical significance, and was very well tolerated"
same,safety and tolerability,"[8]; six-month open-label extension, exposure to 18 months",no safety or tolerability issues
